Values of other authors, collected in US9993445B1, “Oral solution comprising atomoxetine hydrochloride and methods thereof” (TAHO Pharmaceuticals Ltd., priority 2016, dated 2018).
Where a name gives a salt, the structure may show the parent alone.

Details: room temperature

soluble in water: 27.8 mg/mL
Structure (SMILES): CNCCC(Oc1ccccc1C)c1ccccc1 (single isomer, unassigned; (-)) [Atomoxetine hydrochloride, (−)-N-methyl-3-phenyl-3 (o-tolyloxy) propylamine]
